Measured values from PMC10382042, “Brevetoxin versus Brevenal Modulation of Human Nav1 Channels” (Marine Drugs, 2023).
“And” between values parts separate entries of the source, which are not always exact repeats. Equal values may be shown once. Read-outs that look alike come from different tables or passages of the source.

Assays:
Type in all cases: cell-based
human Nav1.5 = human Nav1.5 (Homo sapiens, UniProt Q14524); assay: cell-based; conditions: for EC50: read-out: Nav1.5 Ipeak EC50
Method: (§1) Functional modulation of recombinant human voltage-gated sodium (Nav) channels exposed to marine PbTx-3 and brevenal was assessed by automated patch-clamp electrophysiology. Neuronal Nav1.2 (CNS) and Nav1.7 (PNS), in addition to muscle Nav1.4 (skeletal) and Nav1.5 (cardiac) sodium channels, were patch-clamped in mammalian cells. Whole-cell currents mediated by human Nav1.4 and Nav1.7 overexpressed in CHO-K1 cells, as well as human Nav1.2 and Nav1.5 overexpressed in HEK293 cells, were recorded at room temperature. Currents were elicited by 25 ms test pulses to −20 mV from a holding potential (Vh) of −120 mV, delivered for 5 min at 0.1 Hz, after each full-bath solution exchange to allow current amplitude and kinetics to reach a steady state.
(§2) Current traces were scaled to maximal Ipeak and are presented as insets in Figure 2 to underline the effects (or lack thereof) of PbTx-3 and brevenal on the current kinetics of the four Nav isoforms studied. Inactivation time constants (τinact) in control and the presence of PbTx-3 and brevenal were estimated by exponential fits (see Methods) to the current decay between 15% and 85% of the depolarizing pulse. Single exponential fits adequately described τinact for the neuronal and the skeletal muscle Nav isoforms, whereas a double exponential fit was required to approximate open channel inactivation of the cardiac Nav current. Consistent with the enhancement of Ilate observed for Nav1.2, Nav1.4, and Nav1.5 in the presence of PbTx-3, significant concentration-dependent increases in the Yinf asymptote were detected (Tables S1–S3). These were mirrored by brevenal exposure in Nav1.2- and Nav1.4-mediated currents. Nevertheless, the estimated τinacts appeared insensitive to PbTx-3 and brevenal modification, with the notable exception of Nav1.4, for which high concentrations of PbTx-3 and brevenal caused a measurable slowing of the open channel inactivation time constant (Table S2).
(§3) Recording solutions: The extracellular solution contained (in mM) 140 NaCl, 5 KCl, 2 CaCl2, 2 MgCl2, 10 glucose, and 10 HEPES (pH 7.4 with NaOH, 298 ± 3 mOsmol/k g). Control intracellular solution (in mM): 60 CsF, 70 CsCl, 10 EGTA, 10 glucose, and 10 HEPES (pH 7.2 with CsOH, 285 ± 3 mOsmol/kg). Intracellular exposure to brevenal (1 μM) was achieved by including it in the control intracellular solution during chip filling.
(§4) HEK293 cells heterologously expressing human Nav1.2 (Scottish Biomedical, a kind gift from the Petrous lab, Florey Institute of Neuroscience and Mental Health, Melbourne, VIC Australia) and Nav1.5 (ChanTest Corp., Cleveland, OH, USA) were cultured in DMEM containing 10% v/v FBS and selection antibiotics to enable stable expression as per the manufacturer’s recommendation. CHOK1 expressing Nav1.4 and Nav1.7 (ChanTest) was cultured in DMEM/F12 containing 10% v/v FBS and selection antibiotics supporting stable expression as recommended by the manufacturer. Cells were maintained in a humidified 5% CO2 incubator at 37 °C, grown in T25 flasks to 70–80% confluence, and passaged every 3–4 days using TrypLE Express (Invitrogen). After harvesting with TrypLE, cells were resuspended to 10^5 cells/mL in cold extracellular solution and allowed to recover for 30 min at 4 °C before recording.
(§5) Electrophysiology: Automated patch-clamp (APC) recordings were performed in a PatchLiner Octo (Nanion Technologies GmbH, Munich, Germany) equipped with two EPC-10 quadro patch-clamp amplifiers (HEKA Electronik, Lambrecht/Pfalz, Germany). PatchControl HT (Nanion) was used for cell capture, seal formation, and establishment of the whole-cell configuration, whilst voltage was controlled and currents were sampled with PatchMaster (HEKA Electronics). Recordings were performed under the whole-cell configuration using single-hole planar medium resistance NPC-16 chips (Rchip, resistance of ~2.5 MΩ) at room temperature (22–24 °C).
(§6) Cells between passages 6 and 12 were used. […]

human Nav1.7 [1] = target: T1, human Nav1.7 (Homo sapiens, UniProt Q15858); assay: Automated patch-clamp I-V relationship (voltage dependence of activation, Gmax), Nav1.7
T1 sequence (Q15858 whole entry): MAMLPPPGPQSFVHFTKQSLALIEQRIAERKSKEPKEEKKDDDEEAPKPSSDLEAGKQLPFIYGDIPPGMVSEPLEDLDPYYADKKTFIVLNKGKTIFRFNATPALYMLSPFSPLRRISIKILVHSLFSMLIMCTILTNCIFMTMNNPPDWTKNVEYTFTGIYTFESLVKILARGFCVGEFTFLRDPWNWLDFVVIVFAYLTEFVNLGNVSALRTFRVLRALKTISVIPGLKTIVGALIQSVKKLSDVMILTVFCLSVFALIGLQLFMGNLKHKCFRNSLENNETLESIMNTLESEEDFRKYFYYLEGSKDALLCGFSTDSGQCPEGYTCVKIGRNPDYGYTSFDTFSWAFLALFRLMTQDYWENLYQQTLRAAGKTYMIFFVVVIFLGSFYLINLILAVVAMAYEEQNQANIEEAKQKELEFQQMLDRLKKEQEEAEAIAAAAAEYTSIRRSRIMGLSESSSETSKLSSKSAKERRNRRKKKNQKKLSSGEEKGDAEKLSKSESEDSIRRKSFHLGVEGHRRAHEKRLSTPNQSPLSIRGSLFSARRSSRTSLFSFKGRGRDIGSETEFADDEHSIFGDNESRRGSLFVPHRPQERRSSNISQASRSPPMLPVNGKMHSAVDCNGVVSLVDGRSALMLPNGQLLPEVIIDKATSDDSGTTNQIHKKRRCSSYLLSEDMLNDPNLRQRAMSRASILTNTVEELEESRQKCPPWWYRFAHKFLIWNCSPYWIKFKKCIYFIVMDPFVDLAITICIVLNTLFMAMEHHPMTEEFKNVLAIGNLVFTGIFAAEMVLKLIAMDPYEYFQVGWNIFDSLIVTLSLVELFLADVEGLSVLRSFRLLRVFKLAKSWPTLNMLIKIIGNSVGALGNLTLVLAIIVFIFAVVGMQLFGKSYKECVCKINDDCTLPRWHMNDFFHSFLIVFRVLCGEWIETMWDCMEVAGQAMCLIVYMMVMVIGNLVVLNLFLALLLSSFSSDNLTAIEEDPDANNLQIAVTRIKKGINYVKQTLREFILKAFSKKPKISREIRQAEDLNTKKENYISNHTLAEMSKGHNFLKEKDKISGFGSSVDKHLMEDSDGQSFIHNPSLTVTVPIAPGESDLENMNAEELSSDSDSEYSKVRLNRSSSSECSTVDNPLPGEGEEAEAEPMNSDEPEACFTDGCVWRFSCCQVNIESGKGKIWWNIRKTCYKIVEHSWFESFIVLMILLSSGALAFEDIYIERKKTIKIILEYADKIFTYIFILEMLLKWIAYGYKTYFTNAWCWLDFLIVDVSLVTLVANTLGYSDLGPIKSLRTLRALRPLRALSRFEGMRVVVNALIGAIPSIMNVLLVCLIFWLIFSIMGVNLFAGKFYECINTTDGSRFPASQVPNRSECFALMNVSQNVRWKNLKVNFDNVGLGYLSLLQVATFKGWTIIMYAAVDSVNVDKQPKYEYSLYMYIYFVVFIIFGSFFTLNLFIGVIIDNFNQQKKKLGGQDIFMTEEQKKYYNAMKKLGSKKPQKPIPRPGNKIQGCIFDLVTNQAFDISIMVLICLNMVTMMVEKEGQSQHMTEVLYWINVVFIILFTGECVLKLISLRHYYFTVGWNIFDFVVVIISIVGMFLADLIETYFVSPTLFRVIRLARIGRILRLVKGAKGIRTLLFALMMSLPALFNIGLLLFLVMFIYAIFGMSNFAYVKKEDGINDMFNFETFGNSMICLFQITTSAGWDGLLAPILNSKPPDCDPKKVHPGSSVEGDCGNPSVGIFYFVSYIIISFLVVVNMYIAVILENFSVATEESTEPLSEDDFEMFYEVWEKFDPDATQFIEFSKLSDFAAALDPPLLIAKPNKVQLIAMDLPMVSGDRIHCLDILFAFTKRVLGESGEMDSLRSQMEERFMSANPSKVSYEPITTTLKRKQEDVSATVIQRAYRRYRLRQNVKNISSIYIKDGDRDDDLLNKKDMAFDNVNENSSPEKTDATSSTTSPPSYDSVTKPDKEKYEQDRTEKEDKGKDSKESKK
Method: (§7) The voltage dependence of recombinant Nav channel-mediated currents exposed to PbTx-3 and brevenal was evaluated using current–voltage (I-V) relationships built for Ipeak and Ilate elicited by a standard stimulation protocol (25 ms, −100 to +60 mV, Vh −120 mV, 0.1 Hz).
(§8) The effects of extracellular exposure to PbTx-3 (PbTx-3o = 1 μM) and brevenal (Brevenalo = 10 μM) on the activation of Nav channels in neuronal and muscle cells were examined under normal intracellular ionic conditions. […] To investigate the possibility of overlapping binding of these compounds within Nav channels, Nav whole-cell currents were recorded using an intracellular solution supplemented with brevenal (Brevenali = 1 μM). After equilibration, extracellular PbTx-3o (1 μM) was applied and its modulatory effects over the current kinetics and voltage dependence of activation were compared.
(§9) Figure 4 and Figure 5 display representative current traces mediated by human recombinant Nav channels in control and upon exposure to PbTx-3 and brevenal. I-V plots from the normalized peak and late (when present) currents amplitudes (Ipeak/Ipeak^max and Ilate/Ipeak^max) were fitted to a Boltzmann function rendering the half-maximal activation potential (V0.5) and normalized macroscopic conductance (Gmax) parameters (see Section 4). The changes in V0.5 (ΔV0.5 = V0.5^Comp − V0.5^Ctr) and relative Gmax (Gmax^Rel = Gmax^Comp/Gmax^Ctr) observed in the presence of PbTx-3 and brevenal and control conditions were then calculated and compared for all assayed conditions.
as §3, §5
(§10) Peak I–V curves were fitted using:I(V) = (V − Vrev) × Gmax/(1 + exp ((V0.5 − V)/Vslope) where I is the macroscopic current, V is the command potential, Vrev is the reversal potential (mV), Gmax is the maximal conductance, V0.5 is the half-activation potential (mV), and Vslope is the slope factor (mV/e-fold).

human Nav1.7 [2] = target: T1, human Nav1.7; assay: Automated patch-clamp, concentration-response and inactivation fits, Nav1.7 in CHO-K1
Method: as §1, §2, §3, §4, §5, §6

human Nav1.2 = human Nav1.2 (Homo sapiens, UniProt Q99250); assay: Automated patch-clamp I-V relationship (voltage dependence of activation, Gmax), Nav1.2
Sequence of human Nav1.2 (Q99250 whole entry): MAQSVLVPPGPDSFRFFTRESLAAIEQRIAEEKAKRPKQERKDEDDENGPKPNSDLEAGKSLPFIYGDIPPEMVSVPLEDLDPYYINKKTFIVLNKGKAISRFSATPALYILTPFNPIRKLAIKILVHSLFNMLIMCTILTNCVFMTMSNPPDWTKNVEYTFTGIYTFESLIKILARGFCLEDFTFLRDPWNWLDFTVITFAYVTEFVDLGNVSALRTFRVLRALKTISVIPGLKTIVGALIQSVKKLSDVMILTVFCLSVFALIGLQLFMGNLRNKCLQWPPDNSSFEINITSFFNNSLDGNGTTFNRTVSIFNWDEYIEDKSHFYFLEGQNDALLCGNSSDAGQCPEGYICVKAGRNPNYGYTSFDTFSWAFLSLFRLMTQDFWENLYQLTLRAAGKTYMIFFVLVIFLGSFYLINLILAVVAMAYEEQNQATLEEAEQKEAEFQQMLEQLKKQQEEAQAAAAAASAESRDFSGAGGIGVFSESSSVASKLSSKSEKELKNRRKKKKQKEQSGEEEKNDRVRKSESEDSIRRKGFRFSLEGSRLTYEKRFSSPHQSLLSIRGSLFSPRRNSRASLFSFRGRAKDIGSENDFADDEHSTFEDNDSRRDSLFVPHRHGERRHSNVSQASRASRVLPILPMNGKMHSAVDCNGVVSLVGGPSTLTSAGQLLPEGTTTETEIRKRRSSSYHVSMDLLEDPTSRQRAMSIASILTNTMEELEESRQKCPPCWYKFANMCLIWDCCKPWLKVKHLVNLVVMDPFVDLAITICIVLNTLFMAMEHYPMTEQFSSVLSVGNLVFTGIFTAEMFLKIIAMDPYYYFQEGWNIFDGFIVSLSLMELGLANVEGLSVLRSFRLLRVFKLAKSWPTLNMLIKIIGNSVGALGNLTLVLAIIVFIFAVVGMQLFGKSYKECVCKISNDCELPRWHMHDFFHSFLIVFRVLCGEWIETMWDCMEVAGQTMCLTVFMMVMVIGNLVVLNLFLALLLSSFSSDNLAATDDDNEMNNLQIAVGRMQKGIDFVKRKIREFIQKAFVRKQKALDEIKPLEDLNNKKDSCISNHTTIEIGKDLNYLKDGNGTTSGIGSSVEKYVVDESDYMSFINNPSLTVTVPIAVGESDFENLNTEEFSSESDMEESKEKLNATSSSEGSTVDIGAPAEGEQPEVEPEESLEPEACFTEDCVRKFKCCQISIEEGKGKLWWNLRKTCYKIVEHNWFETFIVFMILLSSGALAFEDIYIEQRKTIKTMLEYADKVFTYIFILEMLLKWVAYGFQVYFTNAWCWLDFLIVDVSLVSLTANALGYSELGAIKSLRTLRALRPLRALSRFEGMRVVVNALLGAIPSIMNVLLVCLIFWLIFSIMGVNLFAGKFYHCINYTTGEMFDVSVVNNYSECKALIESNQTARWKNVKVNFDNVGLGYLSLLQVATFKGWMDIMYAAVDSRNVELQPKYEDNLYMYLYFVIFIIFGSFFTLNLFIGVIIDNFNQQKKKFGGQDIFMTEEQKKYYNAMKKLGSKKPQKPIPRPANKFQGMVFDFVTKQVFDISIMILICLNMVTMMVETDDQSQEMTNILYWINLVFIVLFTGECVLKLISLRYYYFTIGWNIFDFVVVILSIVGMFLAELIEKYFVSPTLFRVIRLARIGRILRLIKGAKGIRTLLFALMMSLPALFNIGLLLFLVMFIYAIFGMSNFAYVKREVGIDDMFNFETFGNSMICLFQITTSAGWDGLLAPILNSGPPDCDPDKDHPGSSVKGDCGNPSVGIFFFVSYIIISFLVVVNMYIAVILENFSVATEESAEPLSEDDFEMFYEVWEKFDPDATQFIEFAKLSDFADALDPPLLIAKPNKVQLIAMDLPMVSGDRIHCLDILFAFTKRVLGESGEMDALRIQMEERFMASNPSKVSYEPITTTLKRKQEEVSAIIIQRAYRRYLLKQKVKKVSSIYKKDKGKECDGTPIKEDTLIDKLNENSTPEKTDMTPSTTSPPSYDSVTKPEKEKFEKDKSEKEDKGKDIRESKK
Method: as §7, §8, §9, §3, §5, §10

[3] = extracellular brevenal 10 μM, n = 5

C=C/C=C\CC[C@H]1O[C@H]2CC[C@@]3(C)O[C@H]4[C@@H](O)C[C@@]5(C)O[C@@H](CC/C=C(C)/C(C)=C/C=O)[C@@H](C)C[C@H]5O[C@@H]4C[C@@H]3O[C@@H]2CC[C@@]1(C)O [Brevenal]
Nav1.5 A1Rel (human Nav1.5; 10^-5 M, n = 4): 0.77±0.05 | Nav1.5 τ 1inact (human Nav1.5; 10^-5 M, n = 4): 0.44 ± 0.01 ms | Nav1.5 τ 2inact (human Nav1.5; 10^-5 M, n = 4): 1.79 ± 0.06 ms | Nav1.5 A1Rel (human Nav1.5; 10^-6 M, n = 4): 0.77±0.07 | Nav1.5 τ 1inact (human Nav1.5; 10^-6 M, n = 4): 0.46 ± 0.01 ms | Nav1.5 τ 2inact (human Nav1.5; 10^-6 M, n = 4): 2.05 ± 0.21 ms | Nav1.5 A1Rel (human Nav1.5; 10^-9 M, n = 4): 0.73±0.07 | Nav1.5 τ 1inact (human Nav1.5; 10^-9 M, n = 4): 0.45 ± 0.01 ms | Nav1.5 τ 2inact (human Nav1.5; 10^-9 M, n = 4): 1.77 ± 0.34 ms | EC50 (human Nav1.5; inhibition of peak current, −20 mV, Vh −120 mV, n = 5): 17 nM | Nav1.5 Ilate FC^Max (maximal fold change) (human Nav1.5; not significant vs control, −20 mV, Vh −120 mV, n = 5): 1.3 ± 0.2 | Nav1.5 Ipeak FC^Max (maximal fold change) (human Nav1.5; test pulse −20 mV, Vh −120 mV, extracellular, n = 5): 0.4 ± 0.1 | Nav1.7 V0.5 (human Nav1.7 [1]; Brevenali-occupied channels (intracellular 1 μM), n = 4, control −20.0 ± 2.4 mV): −16.6 ± 1.7 mV | decrease in Nav1.7 Gmax (human Nav1.7 [1]; Brevenalo 10 μM): ~ 10% | Gmax^Rel of Nav1.7 (human Nav1.7 [1]; Brevenalo 10 μM, n = 5): 0.9 ± 0.1 | shift in V0.5 of Nav1.7 (human Nav1.7 [1]; Brevenalo 10 μM, n = 6): −4.5 ± 0.4 mV | Nav1.7 yinf (human Nav1.7 [2]; 10^-5 M, n = 4): 0.07±0.01 | Nav1.7 τ inact (human Nav1.7 [2]; 10^-5 M, n = 4): 0.93 ± 0.09 ms | Nav1.7 yinf (human Nav1.7 [2]; 10^-6 M, n = 4): 0.07±0.01 | Nav1.7 τ inact (human Nav1.7 [2]; 10^-6 M, n = 4): 0.85 ± 0.06 ms | Nav1.7 yinf (human Nav1.7 [2]; 10^-9 M, n = 4): 0.07±0.01 | Nav1.7 τ inact (human Nav1.7 [2]; 10^-9 M, n = 4): 0.76 ± 0.05 ms | modulation of Nav1.7 currents (human Nav1.7 [2]; up to 30 μM): did not modulate | Nav1.2 V0.5 (human Nav1.2; Ctro:Brevenali, intracellular brevenal 1 μM, n = 4, control −22.6 ± 1.9 mV): −43.9 ± 2.3 mV | decrease in Nav1.2 Gmax (human Nav1.2; extracellular brevenal 10 μM): ~ 40% | Gmax^Rel of Nav1.2 (human Nav1.2; [3]): 0.6 ± 0.1 | ΔV0.5 of Nav1.2 activation (depolarizing shift) (human Nav1.2; [3]): 6.1 ± 1.0 mV | leftward shift in Nav1.2 V0.5 vs control intracellular (human Nav1.2; intracellular dialysis with brevenal 1 μM): ~ 20 mV

C=C(CO)C[C@@H]1C[C@H](O)[C@]2(C)OC3CC4OC5C[C@]6(C)O[C@]7(C)CCC8OC9C[C@]%10(C)OC%11C(C)=CC(=O)OC%11CC%10OC9C[C@@H](C)C8OC7CC6O[C@@]5(C)C/C=C\C4OC3CC2O1 (some centres unmarked) [PbTx-3, Brevetoxin PbTx-3]
Nav1.5 A1Rel (human Nav1.5): 0.82±0.05 and 0.72±0.01 and 0.71±0.06 | Nav1.5 A2Rel (human Nav1.5): 0.18±0.05 and 0.28±0.01 and 0.29±0.06 | Nav1.5 Ilate FC^Max (maximal fold change) (human Nav1.5): 1.8 ± 0.1 | Nav1.5 Ipeak FC^Max (maximal fold change) (human Nav1.5): 0.2 ± 0.1 | Nav1.5 τ 1inact (human Nav1.5): 0.46 ± 0.03 ms and 0.48 ± 0.06 ms and 0.45 ± 0.02 ms | Nav1.5 τ 2inact (human Nav1.5): 2.42 ± 0.52 ms and 2.67 ± 0.78 ms and 1.48 ± 0.31 ms | EC50 (human Nav1.5): 2.2 nM | decrease in Nav1.7 maximal conductance (human Nav1.7 [1]): ~ 70% | leftward shift in activation ΔV0.5 of Nav1.7 (human Nav1.7 [1]): 6.8 ± 0.7 mV | shift in the voltage dependence of activation of Nav1.7 (human Nav1.7 [1]): −10.0 ± 0.6 mV | Nav1.7 Ilate FC^Max (maximal fold change) (human Nav1.7 [2]): 0.6 ± 0.1 | Nav1.7 Ipeak FC^Max (maximal fold change) (human Nav1.7 [2]): 0.4 ± 0.1 | Nav1.7 yinf (human Nav1.7 [2]): 0.04±0.01 | Nav1.7 τ inact (human Nav1.7 [2]): 0.60 ± 0.05 ms and 0.63 ± 0.04 ms and 0.66 ± 0.11 ms | IC50 (human Nav1.7 [2]; read-out: IC50, inhibition of Nav1.7 Ilate): 34 nM | EC50 (human Nav1.7 [2]; read-out: Nav1.7 Ipeak EC50): 0.16 nM | Gmax^Rel of Nav1.2 (human Nav1.2): 0.9 ± 0.1 | Nav1.2 Ilate as % of Ipeak (human Nav1.2): ~ 40% | ΔV0.5 of Nav1.2 activation (human Nav1.2): 1.5 ± 1.0 mV
